# Assay results reported in patent publication US8501446B2 (Vertex Pharmaceuticals Incorporated, priority 2004, dated 2013).
# Tests used:
# Type in all cases: biochemical
# JAK3 = target: T1, JAK3 (Homo sapiens, UniProt P52333); assay: JAK3 inhibition assay (standard radioactive enzyme assay); settings: average Ki if more than one value determined
# T1 sequence (P52333 1-1124): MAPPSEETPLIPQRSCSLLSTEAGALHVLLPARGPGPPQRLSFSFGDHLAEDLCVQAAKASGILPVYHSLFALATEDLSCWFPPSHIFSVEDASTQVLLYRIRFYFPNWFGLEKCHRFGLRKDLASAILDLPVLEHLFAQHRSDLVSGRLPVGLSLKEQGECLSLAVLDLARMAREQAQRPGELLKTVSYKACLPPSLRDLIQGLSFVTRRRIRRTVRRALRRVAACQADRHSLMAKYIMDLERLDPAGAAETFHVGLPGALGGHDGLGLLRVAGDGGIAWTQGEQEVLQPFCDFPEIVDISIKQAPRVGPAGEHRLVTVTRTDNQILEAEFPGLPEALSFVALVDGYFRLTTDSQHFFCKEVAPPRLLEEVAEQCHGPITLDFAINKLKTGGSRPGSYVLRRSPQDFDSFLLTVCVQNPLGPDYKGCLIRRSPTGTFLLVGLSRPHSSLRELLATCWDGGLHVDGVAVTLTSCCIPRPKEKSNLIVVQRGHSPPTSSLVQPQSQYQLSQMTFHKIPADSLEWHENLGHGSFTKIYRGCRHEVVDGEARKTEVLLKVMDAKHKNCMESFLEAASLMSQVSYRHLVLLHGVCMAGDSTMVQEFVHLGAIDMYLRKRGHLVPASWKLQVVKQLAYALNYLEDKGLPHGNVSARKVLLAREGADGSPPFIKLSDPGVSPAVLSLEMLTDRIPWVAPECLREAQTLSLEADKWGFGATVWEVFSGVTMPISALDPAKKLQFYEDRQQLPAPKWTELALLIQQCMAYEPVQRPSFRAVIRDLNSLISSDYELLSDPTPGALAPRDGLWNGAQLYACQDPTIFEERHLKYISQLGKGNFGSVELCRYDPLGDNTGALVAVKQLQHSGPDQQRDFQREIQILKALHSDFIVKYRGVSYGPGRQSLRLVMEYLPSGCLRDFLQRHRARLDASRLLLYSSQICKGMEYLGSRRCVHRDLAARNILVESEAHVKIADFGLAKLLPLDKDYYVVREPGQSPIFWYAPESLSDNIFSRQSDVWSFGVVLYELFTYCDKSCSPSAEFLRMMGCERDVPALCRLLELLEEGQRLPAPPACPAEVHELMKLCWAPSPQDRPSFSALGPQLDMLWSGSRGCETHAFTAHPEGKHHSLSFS
# JAK2 = JAK2 (Homo sapiens, UniProt O60674); assay: JAK2 inhibition assay (radioactive enzyme assay, as for JAK3); settings: average Ki if more than one value determined
# Procedure, shortened: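 Both kinases: poly(Glu)4Tyr substrate in 100 mM HEPES pH 7.4, 10 mM MgCl2, 1 mM DTT. Run 20 min at 25° C, TCA stop, filter-bound ³³P counted, Ki(app) fitted after background subtraction. JAK3: final [γ-³³P]ATP 5 μM, enzyme added as 2 nM solution. JAK2: final poly(Glu)4Tyr 15 μM, final ATP 12 μM.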
# ROCK I (AA 6-553) = target: T2, ROCK I (AA 6-553) (Homo sapiens, UniProt Q13464); assay: ROCK inhibition assay, standard coupled enzyme system ("Enzyme"); settings: enzyme-linked assay
# T2 construct: ROCK I (AA 6-553)
# Procedure, shortened: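 ROCK I (AA 6-553) at 45 nM and 30 °C with 45 μM ATP and 200 μM peptide, in 100 mM HEPES pH 7.5, 10 mM MgCl2, 25 mM NaCl, 2 mM DTT, 1.5% DMSO. ADP output read by a PK/LDH coupled system: 2.5 mM PEP, 350 μM NADH, 30 μg/ml PK, 10 μg/ml LDH.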
# [1] = target: T3, full length Aurora-A (AA 1-403) (Homo sapiens, UniProt O14965); assay: Aurora-A inhibition assay, standard coupled enzyme system; settings: average Ki if more than one value determined
# T3 construct: full length Aurora-A (AA 1-403)
# T3 sequence (O14965 1-403): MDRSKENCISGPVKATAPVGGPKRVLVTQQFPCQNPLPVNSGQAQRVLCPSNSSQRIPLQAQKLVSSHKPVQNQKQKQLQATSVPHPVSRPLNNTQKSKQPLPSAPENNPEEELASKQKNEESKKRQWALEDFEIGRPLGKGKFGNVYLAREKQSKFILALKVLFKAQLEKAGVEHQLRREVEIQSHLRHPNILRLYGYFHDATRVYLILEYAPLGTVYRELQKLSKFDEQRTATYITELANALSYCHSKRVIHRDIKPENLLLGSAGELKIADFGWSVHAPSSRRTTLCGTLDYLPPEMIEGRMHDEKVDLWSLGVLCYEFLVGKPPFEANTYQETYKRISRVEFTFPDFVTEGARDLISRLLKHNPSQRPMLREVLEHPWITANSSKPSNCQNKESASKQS
# JAK2, sequence (O60674 whole entry, species assumed): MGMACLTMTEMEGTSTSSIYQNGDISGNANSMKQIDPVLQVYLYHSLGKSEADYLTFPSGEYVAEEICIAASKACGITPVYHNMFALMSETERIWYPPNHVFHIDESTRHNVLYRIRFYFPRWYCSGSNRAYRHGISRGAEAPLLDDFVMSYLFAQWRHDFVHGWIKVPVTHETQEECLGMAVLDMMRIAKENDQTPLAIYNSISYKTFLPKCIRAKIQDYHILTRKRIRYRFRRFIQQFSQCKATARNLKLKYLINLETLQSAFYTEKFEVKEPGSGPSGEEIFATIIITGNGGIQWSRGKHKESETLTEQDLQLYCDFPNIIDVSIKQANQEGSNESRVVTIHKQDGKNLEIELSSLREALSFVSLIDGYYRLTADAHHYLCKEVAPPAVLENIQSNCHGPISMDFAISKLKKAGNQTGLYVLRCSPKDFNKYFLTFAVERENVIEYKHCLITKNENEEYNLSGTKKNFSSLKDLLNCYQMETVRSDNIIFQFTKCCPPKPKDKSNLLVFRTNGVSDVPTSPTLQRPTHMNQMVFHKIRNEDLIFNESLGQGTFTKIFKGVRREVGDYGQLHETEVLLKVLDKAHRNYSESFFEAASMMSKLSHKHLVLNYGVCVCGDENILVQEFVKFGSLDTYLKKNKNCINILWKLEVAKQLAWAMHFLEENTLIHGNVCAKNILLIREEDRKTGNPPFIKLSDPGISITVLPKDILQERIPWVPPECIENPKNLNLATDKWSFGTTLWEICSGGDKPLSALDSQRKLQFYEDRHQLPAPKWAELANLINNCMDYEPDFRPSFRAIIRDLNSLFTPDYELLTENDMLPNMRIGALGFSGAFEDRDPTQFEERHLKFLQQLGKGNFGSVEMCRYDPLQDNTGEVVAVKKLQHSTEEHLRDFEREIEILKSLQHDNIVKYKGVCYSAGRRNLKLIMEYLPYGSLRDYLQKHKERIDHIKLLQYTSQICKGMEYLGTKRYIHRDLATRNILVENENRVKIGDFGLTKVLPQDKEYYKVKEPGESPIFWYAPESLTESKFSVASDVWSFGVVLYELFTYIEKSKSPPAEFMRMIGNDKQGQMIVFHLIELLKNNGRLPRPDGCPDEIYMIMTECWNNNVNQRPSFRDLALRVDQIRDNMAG
# T2 sequence (Q13464 6-553, species assumed): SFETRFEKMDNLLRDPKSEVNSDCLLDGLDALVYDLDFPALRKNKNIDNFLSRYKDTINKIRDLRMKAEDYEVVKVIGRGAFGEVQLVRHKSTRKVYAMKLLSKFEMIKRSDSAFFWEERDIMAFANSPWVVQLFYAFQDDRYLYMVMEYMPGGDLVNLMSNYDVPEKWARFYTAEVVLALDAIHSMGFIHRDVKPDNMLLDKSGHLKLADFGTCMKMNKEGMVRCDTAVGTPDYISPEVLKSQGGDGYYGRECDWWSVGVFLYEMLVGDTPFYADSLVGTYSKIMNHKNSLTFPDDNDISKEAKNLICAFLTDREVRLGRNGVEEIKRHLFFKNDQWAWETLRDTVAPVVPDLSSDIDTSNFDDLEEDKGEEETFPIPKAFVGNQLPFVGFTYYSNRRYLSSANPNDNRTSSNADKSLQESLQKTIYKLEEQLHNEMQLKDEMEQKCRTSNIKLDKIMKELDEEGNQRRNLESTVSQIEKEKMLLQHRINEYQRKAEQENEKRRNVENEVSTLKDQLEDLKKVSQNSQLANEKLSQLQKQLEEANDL
Structure (SMILES),Ki (JAK3) [nM],Ki (JAK2) [nM],Ki (ROCK I (AA 6-553)) [nM],Ki [1] [nM]
O[C@H]1CCCC[C@@H]1Nc1cccc(-c2c[nH]c3ncc(Cl)cc23)n1 [Compound 132],< 500,< 500,500 to 5000,< 500
CC(C)CNc1cccc(-c2c[nH]c3ncc(Cl)cc23)n1 [Compound 99],< 500,< 500,500 to 5000,< 500
CC(=O)N1[C@H](C)CN(c2cccc(-c3c[nH]c4ncc(NC(=O)/C=C/Cl)cc34)n2)C[C@@H]1C [Compound 192],< 500,< 500,< 500,500 to 5000
CC(=O)N1[C@H](C)CN(c2cc(C(=O)O)cc(-c3c[nH]c4ncc(Cl)cc34)n2)C[C@@H]1C [Compound 67],< 500,< 500,500 to 5000,< 500
CC(=O)N1[C@H](C)CN(c2nc(-c3c[nH]c4ncc(Cl)cc34)ccc2C#N)C[C@@H]1C [Compound 92],< 500,< 500,< 500,< 500
CC(C)[C@@H](C)Nc1cccc(-c2c[nH]c3ncc(Cl)cc23)n1 [Compound 130],< 500,< 500,500 to 5000,< 500
CC(C)CN(C)c1cccc(-c2c[nH]c3ncc(Cl)cc23)n1 [Compound 123],< 500,< 500,500 to 5000,500 to 5000
CC(=O)N1[C@H](C)CN(c2cccc(-c3c[nH]c4ncc(OC5CCOC5)cc34)n2)C[C@@H]1C (stereo partly drawn) [Compound 96],< 500,< 500,500 to 5000,500 to 5000
CC(=O)N1[C@H](C)CN(c2cccc(-c3c[nH]c4ncc(NC(=O)C5=CCCC5)cc34)n2)C[C@@H]1C [Compound 157],< 500,< 500,500 to 5000,500 to 5000
CC(=O)N1CCCN(c2cccc(-c3c[nH]c4ncc(F)cc34)n2)CC1 [Compound 49],< 500,< 500,500 to 5000,500 to 5000
NC(=O)c1ccc(-c2c[nH]c3ncc(Cl)cc23)nc1NCc1ccccc1 [Compound 46],< 500,< 500,500 to 5000,< 500
COCC(=O)Nc1cnc2[nH]cc(-c3cccc(N4C[C@@H](C)N(C(C)=O)[C@@H](C)C4)n3)c2c1 [Compound 170],< 500,< 500,500 to 5000,500 to 5000
CC(=O)N1[C@H](C)CN(c2nc(-c3c[nH]c4ncc(Cl)cc34)c(F)cc2C(N)=O)C[C@@H]1C [Compound 72],< 500,500 to 5000,500 to 5000,< 500
CC(=O)N1[C@H](C)CN(c2cccc(-c3c[nH]c4ncc(NC(=O)CCCN5CCNCC5)cc34)n2)C[C@@H]1C [Compound 152],< 500,< 500,500 to 5000,500 to 5000
CC(=O)N1[C@H](C)CN(c2cccc(-c3c[nH]c4ncc(C(=O)N(C)C)cc34)n2)C[C@@H]1C [Compound 60],500 to 5000,500 to 5000,500 to 5000,500 to 5000
CC(=O)N1[C@H](C)CN(c2cccc(-c3c[nH]c4ncc(NC(=O)CCCN5CCOCC5)cc34)n2)C[C@@H]1C [Compound 153],< 500,< 500,500 to 5000,500 to 5000
CCOC(=O)CCC(=O)Nc1cnc2[nH]cc(-c3cccc(N4C[C@@H](C)N(C(C)=O)[C@@H](C)C4)n3)c2c1 [Compound 119],< 500,< 500,500 to 5000,500 to 5000

Structure (SMILES),Ki (JAK3) [nM],Ki (JAK2) [nM],Ki (ROCK I (AA 6-553)) [nM],Ki [1] [nM]
C[C@@H](Nc1cccc(-c2c[nH]c3ncc(Cl)cc23)n1)c1ccc(F)cc1 [Compound 131],< 500,< 500,500 to 5000,< 500
COC(=O)Nc1cnc2[nH]cc(-c3cccc(N4C[C@@H](C)N(C(C)=O)[C@@H](C)C4)n3)c2c1 [Compound 66],< 500,< 500,500 to 5000,500 to 5000
C[C@@H](CO)Nc1cccc(-c2c[nH]c3ncc(Cl)cc23)n1 [Compound 103],< 500,< 500,500 to 5000,500 to 5000
CC(=O)N1[C@H](C)CN(c2cc(C#N)cc(-c3c[nH]c4ncc(Cl)cc34)n2)C[C@@H]1C [Compound 98],< 500,< 500,500 to 5000,< 500
N#Cc1cc(-c2c[nH]c3ncc(Cl)cc23)nc(N2CCCNCC2)c1 [Compound 151],< 500,< 500,< 500,< 500
CC(=O)N1[C@H](C)CN(c2cccc(-c3c[nH]c4ncc(NC(=O)c5nc[nH]n5)cc34)n2)C[C@@H]1C [Compound 190],< 500,< 500,500 to 5000,500 to 5000
CCOC(=O)Nc1cnc2[nH]cc(-c3cccc(N4C[C@@H](C)N(C(C)=O)[C@@H](C)C4)n3)c2c1 [Compound 70],< 500,< 500,500 to 5000,500 to 5000
CCC(=O)Nc1cnc2[nH]cc(-c3cccc(N4C[C@@H](C)N(C(C)=O)[C@@H](C)C4)n3)c2c1 [Compound 114],< 500,< 500,500 to 5000,500 to 5000
CC(=O)N1[C@H](C)CN(c2cccc(-c3c[nH]c4ncc(NC(=O)C(C)C)cc34)n2)C[C@@H]1C [Compound 117],< 500,< 500,500 to 5000,500 to 5000
CN(C)c1cccc(-c2c[nH]c3ncc(Cl)cc23)n1 [Compound 122],< 500,< 500,500 to 5000,500 to 5000
C=C(C)C(=O)Nc1cnc2[nH]cc(-c3cccc(N4C[C@@H](C)N(C(C)=O)[C@@H](C)C4)n3)c2c1 [Compound 154],< 500,< 500,500 to 5000,500 to 5000
C/C=C/C(=O)Nc1cnc2[nH]cc(-c3cccc(N4C[C@@H](C)N(C(C)=O)[C@@H](C)C4)n3)c2c1 [Compound 181],< 500,< 500,500 to 5000,500 to 5000
CC(=O)N1[C@H](C)CN(c2cccc(-c3c[nH]c4ncc(C(=O)N5CCN(C)CC5)cc34)n2)C[C@@H]1C [Compound 57],500 to 5000,> 5000,500 to 5000,500 to 5000
CC(=O)N1[C@H](C)CN(c2cc(C)c(C#N)c(-c3c[nH]c4ncc(Cl)cc34)n2)C[C@@H]1C [Compound 80],< 500,< 500,500 to 5000,< 500
CC(=O)N1[C@H](C)CN(c2cccc(-c3c[nH]c4ncc(NC(=O)c5ccno5)cc34)n2)C[C@@H]1C [Compound 167],< 500,< 500,500 to 5000,500 to 5000
COC(=O)c1ccc(NCc2ccccc2)nc1-c1c[nH]c2ncc(Cl)cc12 [Compound 45],< 500,< 500,500 to 5000,< 500
